According to patent US7319021B2, “Cell lysis composition, methods of use, apparatus and kit” (Promega Corporation, priority 2002, dated 2008):
Several values for one entry are separate records, joined by “and”; a condition that tells them apart may be missing. Equal values may be shown once.

Experiments:
E. coli cells [1] = experiment: Optical density and visual turbidity of E. coli culture after treatment (Example 2); assay type: cell-based
Method: E. coli bacteria expressing His-tagged Renilla Luciferase were grown in Luria Broth [L Broth]+10 ng/ml tetracycline [Tet] [50 ml of media in a 250 ml flask] at 37° C. overnight in a shaking incubator rotating at 200 RPM. The E. coli strain was prepared by transforming E. coli with a vector expressing histidine-tagged Renilla luciferase. The vector was constructed by conventional methods. See Maniatis et al., “Molecular Cloning: A Laboratory Manual,” 2nd Edition, Cold Spring Harbor Laboratory, Cold Spring Harbor, N.Y. (1982). Following overnight culture the bacterial cells were diluted 1:100 into fresh L broth+Tet and grown to a density of 0.6 at 600 nm [OD 600 0.6] at 37C on the shaking incubator. Renilla expression was induced by addition of isopropyl-beta-D-thiogalactopyranoside (IPTG) from a 1M filter sterilized solution to a final concentration of 1 mM. The culture was grown for 4 additional hours at 37C on the shaking incubator before use. […]
900 ul of 20 mM Tris-HCl pH 7.3 and 100 ul of the corresponding solutions were added to each of 12 disposable plastic cuvettes. After the instrument background was set to zero with a 20 mM Tris-HCl pH 7.3 solution at an optical density of 600 nm (OD600), and the optical density of the solutions was measured.

E. coli cells [2] = experiment: Release of Renilla Luciferase from E. coli (Example 2); assay type: cell-based
Method: E. coli bacteria expressing His-tagged Renilla Luciferase were grown in Luria Broth [L Broth]+10 ng/ml tetracycline [Tet] [50 ml of media in a 250 ml flask] at 37° C. overnight in a shaking incubator rotating at 200 RPM. The E. coli strain was prepared by transforming E. coli with a vector expressing histidine-tagged Renilla luciferase. The vector was constructed by conventional methods. See Maniatis et al., “Molecular Cloning: A Laboratory Manual,” 2nd Edition, Cold Spring Harbor Laboratory, Cold Spring Harbor, N.Y. (1982). Following overnight culture the bacterial cells were diluted 1:100 into fresh L broth+Tet and grown to a density of 0.6 at 600 nm [OD 600 0.6] at 37C on the shaking incubator. Renilla expression was induced by addition of isopropyl-beta-D-thiogalactopyranoside (IPTG) from a 1M filter sterilized solution to a final concentration of 1 mM. The culture was grown for 4 additional hours at 37C on the shaking incubator before use.
One ml of the Renilla luciferase expressing E. coli culture was added to each of 12 tubes, labeled 1 through 12: tubes 1-3, no further addition; tubes 4-6, 10 ul of 10 mg/ml lysozyme; tubes […], 100 ul of CLR formulation A, and; tubes 10-12, 100 ul of CLR formulation A and 10 ul of 10 mg/ml lysozyme. […]

## lysozyme: 10 mg/ml solution of lysozyme [Sigma L 6876] in 20 mM Tris-HCl buffer, pH 7.3; 10 ul per ml culture
E. coli cells [1]; 100 ul of treated culture in 900 ul 20 mM Tris-HCl pH 7.3, culture expressing His-tagged Renilla Luciferase
  OD600: 0.3264 and 0.3261 and 0.3033
E. coli cells [1]; tubes inverted 10 times
  level of turbidity, visual inspection: very turbid
E. coli cells [2]; 2 ul of pellet resuspended in 800 ul
  Relative Light Units Resuspended Pellet Sample: 58.41 Relative Light Units and 60.99 Relative Light Units and 72.03 Relative Light Units
E. coli cells [2]; 2 ul of supernatant
  Relative light Units, Supernatant Sample: 0.053 Relative light Units and 0.074 Relative light Units and 0.048 Relative light Units
